As a reminder, the Solubility is how much of the substance goes into solution per volume. A lower Solubility goes with a poorly soluble substance.

Experimental findings from patent EP4545542A1, “TRANSITION METAL CLUSTER COMPOUNDS FOR ELECTROCHEMICAL APPLICATIONS” (Litricity GmbH, priority 2023, dated 2025) are described below.

A short description of the first series: Solubility by the shake-flask method. As to conditions: Table 2: Solubility test of Fe28 clusters (acid linkers; Fe28+Tartaric acid with Ba, Ca, Mg counterions); conditions not given separately.
Method: Solubility was determined by the shake-flask method (table 1) at room temperature (25 °C, pH = 5.7 in 0.3 M of Na2SO4).
Consider “Ca10[Fe28(µ3-O)8(tart)16(OAc)24] ×H2O [Ca10Fe28]”, for which the Solubility came to 2 mM.
The same measure, in the same setting: to “Mq10[Fe28(µ3-O)8(tart)16(OAc)24] ×H2O [Mg10Fe28]” belongs 1 mM; to “Ba10[Fe28(µ3-O)8(tart)16(OAc)24] ×H2O [Ba10Fe28]”, 84 mM.

The series is the same for the next values; noted with them: shake-flask method, room temperature (25 °C, pH = 5.7 in 0.3 M of Na2SO4); Table 1, influence of the cation.
With “K20[Fe28(µ3-O)8(tart)16(OAc)24] ×H2O [Cluster K20Fe28]”, the Solubility is 50 mM.
For “Li2Na18[Fe28(µ3-O)8(tart)16(OAc)24] ×H2O [Li2Na18Fe28]”, the Solubility amounted to 83 mM.
Take “Li2K18[Fe28(µ3-O)8(tart)16(OAc)24] ×H2O [Li2K18Fe28]”: the Solubility amounted to 48 mM.
In the case of “K2Li18[Fe28(µ3-O)8(tart)16(OAc)24] ×H2O [Cluster K2Li28Fe28]”, the Solubility stood at 88 mM.
The same measure, in the same setting: to “Na20[Fe28(µ3-O)8(tart)16(OAc)24] ×H2O [Na20Fe28]” belongs 70 mM.
